According to paper PMC2653224 (Journal of molecular biology, 2008):

Biological target: cytochrome c (Fe^2+ cyt c) (Equus caballus, UniProt P00004)
Experiment: equilibrium heme Soret absorbance titration with CO at […] °C
Type: binding

Sequence of cytochrome c (Fe^2+ cyt c) (P00004 2-105): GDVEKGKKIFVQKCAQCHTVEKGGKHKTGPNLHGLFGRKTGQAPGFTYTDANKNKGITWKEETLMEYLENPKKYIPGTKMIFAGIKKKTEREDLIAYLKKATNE

Molecule `[C-]#[O+]` [CO] has a Kd of 0.014 ± 0.008 µM.
